Source: patent US4024276A, “Xanthone-2-carboxylic acid compounds” (Roussel-UCLAF, priority 1974, dated 1977)

Test system: cutaneous anaphylaxis
Test: Passive cutaneous anaphylaxis in rats (method of Ovary), anti-allergic activity
Format: in vivo, rat
Settings: Rattus norvegicus; male rats 180-220 g; intravenous, followed immediately by antigen/Evans blue challenge; anti-ovalbumin antiserum ID 3 days before; compounds used as tris(hydroxymethyl)methylamine salts; read-out: ED50 (dose of drug giving 50% inhibition)
Procedure: Evans blue dye was injected with the antigen to act as a marker to assess the severity of the local response which is inhibited by anti-allergic compounds. Groups of 7 male rats weighing 180 to 220 g were used in this test.
Preparation of antigen for sensitization (such as alum precipitated ovalbumin) was effected by washing 120 grams of Al(OH)3 gel in 140 mls of saline solution (use of a macerator facilitates mixing). Then, the product was centrifuged at 3,000 r.p.m. for about 10 minutes and the precipitate was responded with 300 mls of albumin egg powder (1.3 mg/ml) in saline solution and allowed to stand for 30 minutes. Then, the mixture was centrifuged at 3,000 r.p.m. for 10 minutes and the wet precipitate was weighed and to each gram weight 1 ml of saline solution was added. The antigen was stored in the refrigerator and was a quantity sufficient for 60 rats for a 3 day sensitization program.
Preparation of antiserum (such as anti-ovalbumin) was effected by injecting 1 ml of the alum precipitated ovalbumin subcutaneously into the rats on days 0, 2 and 4. The rats were bled on day 14 either by cardiac puncture or via the dorsal abdominal aorta and equal quantities of serum from each animal were pooled and thoroughly mixed. 2 ml aliquots were stored at -20° C in plastic tubes.
For sensitization, rats were anaesthetized with Nembutal (40-60 mg/kg i.p.) and were then sensitized by four ID injections (0.1 ml each) on their shaved backs. The animals were then left for a period of three days to develop sensitization.
For the challenge, the sensitized rats were anaesthetized and challenged intravenously via the superficial penile vein with the anti-allergic compound, followed immediately by 1 ml of an antigen/Evans blue mixture (1 mg albumin egg powder in 0.5 ml saline solution plus 0.5 ml of 1% Evans blue). The injections were speeded up by using an automatic 1 ml self filling glass syringe. The "challenged" rats were killed after 30 minutes and their skin on the dorsal surface was removed. The degree and area of blueing, proportional to the anaphylactic reaction, was assessed on a four point scoring system as follows:
1. Total scores for sites, 1, 2, 3 and 4 = X
2. Mean value of X for each group = X
3. X t = X for test group X c = X for control group [formula]

First: CC(=O)N=S(C)(=O)c1ccc2oc3ccc(C(=O)O)cc3c(=O)c2c1 (stereo not shown) [7-(N-acetyl-S-methylsulfonimidoyl)-xanthone-2-carboxylic acid]
Second: CS(=O)(=NC(=O)c1ccccc1)c1ccc2oc3ccc(C(=O)O)cc3c(=O)c2c1 (stereo not shown) [7-(N-benzoyl-S-methylsulfonimidoyl)-xanthone-2-carboxylic acid]
The ED50 of the first is 10-fold lower: 0.065 mg/kg for the first, 0.68 mg/kg for the second.

First: CCCCCCc1cc(S(C)(=O)=NC(N)=O)cc2c(=O)c3cc(C(=O)O)ccc3oc12 (stereo not shown) [7-(N-carbamoyl-S-methylsulfonimidoyl)-5-(n-hexyl)-xanthone-2-carboxylic acid]
Second: CCCCCCc1cc(S(C)(=N)=O)cc2c(=O)c3cc(C(=O)O)ccc3oc12 (stereo not shown) [7-(S-methylsulfonimidoyl)-5-(n-hexyl)-xanthone-2-carboxylic acid]
The ED50 of the first is 2.9-fold higher: 0.008 mg/kg for the first, 0.0028 mg/kg for the second.

First: CCCCCOc1cc(S(C)(=N)=O)cc2c(=O)c3cc(C(=O)O)ccc3oc12 (stereo not shown) [7-(S-methylsulfonimidoyl)-5-(n-pentyloxy)-xanthone-2-carboxylic acid]
Second: Cc1ccc(S(=O)(=O)N=S(C)c2ccc3oc4ccc(C(=O)O)cc4c(=O)c3c2)cc1 (stereo not shown) [7-[N-(p-toluenesulfonyl)-S-methylsulfimidoyl]-xanthone-2-carboxylic acid]
The ED50 of the first is 120-fold lower: 0.0035 mg/kg for the first, 0.43 mg/kg for the second.

Same assay, conditions: male rats 180-220 g; intravenous, followed immediately by antigen/Evans blue challenge; anti-ovalbumin antiserum ID 3 days before; compounds used as tris(hydroxymethyl)methylamine salts

`CS(=N)(=O)c1ccc2oc3ccc(C(=O)O)cc3c(=O)c2c1` (stereo not shown) [7-(S-methylsulfonimidoyl)-xanthone-2-carboxylic acid] was tested, and the “ED50 (dose of drug giving 50% inhibition)” value was 0.033 mg/kg.
